According to patent publication US12559725B2, “Formulation comprising extracellular vesicles, method for producing the same, and uses thereof” (MacKay Memorial Hospital, priority 2018, dated 2026):

How the values were obtained:
[1] = test system: mouse model of anti-aging; test: D-galactose aging mouse model, Morris water maze; type: in vivo, BALB/c mice; conditions: D-galactose 6 weeks, then intraperitoneal three times a week for 3 weeks
Method: In a mouse model of anti-aging, BALB/c mice were subcutaneously treated with 100 mg/kg D-galactose every day for 6 consecutive weeks. Then, the mice were intraperitoneally administered with 0.1 ml PBS (serving as the negative control group), 0.1 ml curcumin (1 μM), 0.1 ml ucMSC-naive-EVs, 0.1 ml EV-curcumin (about 120 ug protein of EVs, 2.2×10^11 vesicles), or 5 mg/kg β-lapachone three times a week for 3 weeks after 6 weeks of aging induction and the pre-test of cognition assessment. The anti-aging effect of ucMSC-naive-EVs and EV-curcumin was then assessed by the cognition ability in Morris water maze model.

U937 myeloid cells = test: Reactive oxygen species in PMA-stimulated U937 myeloid cells (DCFH flow cytometry); type: cell-based; conditions: EVs 0.15 mg/ml, curcumin 0.8 mM, 30 minutes, vs medium only
Method: The U937 myeloid cells were seeded in 24-well plate at a density of 8×10^4 cells/well (in 0.4 ml) followed by the stimulation of 100 nM PMA (phorbol myristate acetate) at 37° C., 5% CO2 incubator for 48 hours. The cells were washed with PBS twice before adding medium with and without ucMSC-naive-EVs (0.15 mg/ml), curcumin (Cur, 0.8 mM) or EV-curcumin (Cur/EVs, 0.8 mM) for 30 minutes. The reactions were incubated with DCFH ([…]) at 1 uM for 20 minutes before flow cytometric analysis of H2O2-mediated fluorescence at 480 nm emission.

[2] = test system: cisplatin-induced hearing loss; test: Cisplatin-induced hearing loss mouse model (ABR, organ of Corti explants); type: in vivo, C57BL/6 mice; conditions: intraperitoneal 0.1 ml day 1 to day 5; ABR threshold at 12 kHz, 10 days post-treatment
Method: In a mouse model of hearing loss, the inner cell damage was induced by administering to C57BL/6 mice 4 mg/kg cisplatin daily for 5 consecutive days, in which the mice were intraperitoneally treated with 0.1 ml PBS (serving as the negative control group), 0.1 ml ucMSC-naive-EVs or 0.1 ml EV-curcumin (about 120 ug protein of EVs, 2.2×10^11 to 2.8×10^11 vesicles) from day 1 to day 5. The protecting effect of ucMSC-naive-EVs and EV-curcumin was assessed by analyzing the cell number and function of the inner ear cells. To assess the protecting effect of the present EV formulation on hearing loss and inner ear cell death, auditory brain response (ABR) threshold at 12 kHz and immunofluorescence images of organ of Corti explants were measured 10 days post-treatment. To obtain the ucMSC-EVs preparations with and without curcumin incorporation enough for the animal study requiring a larger amount of EVs for daily intraperitoneal injection, the ucMSC-EVs in paired formulations with and without curcumin incorporation were prepared and stored at −80° C. for at least 3 months. To make sure homogeneous application of ucMSC-EV to each mouse, different batches of EVs were thawed and mixed for the experiment right before the animal study. One-way ANOVA with Duncan post hoc test was performed when compared with the control or cisplatin group.

| SMILES | time to reach the safety island (escape latency), Morris water maze [1] | production of reactive oxygen species (H2O2-mediated fluorescence) (U937 myeloid cells) | cisplatin-induced hearing loss (ABR) [2] |
| --- | --- | --- | --- |
| COc1cc(/C=C/C(=O)CC(=O)/C=C/c2ccc(O)c(OC)c2)ccc1O [curcumin] | obviously reduced the time to reach the safety island | significantly decreased the production of reactive oxygen species | not curcumin alone |
| CC1(C)CCC2=C(O1)c1ccccc1C(=O)C2=O [β-lapachone] | obviously reduced the time to reach the safety island | – | – |
